Experiments:
Format in all cases: physicochemical
[1] = Conversion of the crystalline form in aqueous media
[2] = Competitive slurries of Form A and Form B in a range of solvents
Description: Form B also has a much higher melting endotherm.

[3] = Solubility profile of solid forms

conversion to other solid forms in aqueous media [1]	relative stability of crystalline forms in competitive slurries [2]	solubility profile compared with Form A [3]	SMILES
convert to the amorphous form			CC(C)Oc1cc(Oc2cnc(C(=O)N3CCC3)cn2)cc(C(=O)Nc2cc[nH]n2)c1 [Form A, 3-{[5-(Azetidin-1-ylcarbonyl)pyrazin-2-yl]oxy}-5-[(1-methylethyl)oxy]-N-1H-pyrazol-3-ylbenzamide]
convert to the amorphous form			CC(C)Oc1cc(Oc2cnc(C(=O)N3CCC3)cn2)cc(C(=O)Nc2cc[nH]n2)c1 [Form A′, 3-{[5-(azetidin-1-ylcarbonyl)pyrazin-2-yl]oxy}-5-[(1-methylethyl)oxy]-N-1H-pyrazol-3-ylbenzamide]
		different solubility profile	CC(C)Oc1cc(Oc2cnc(C(=O)N3CCC3)cn2)cc(C(=O)Nc2cc[nH]n2)c1 [amorphous form, 3-{[5-(azetidin-1-ylcarbonyl)pyrazin-2-yl]oxy}-5-[(1-methylethyl)oxy]-N-1H-pyrazol-3-ylbenzamide]

SMILES	conversion to other solid forms in aqueous media [1]	relative stability of crystalline forms in competitive slurries [2]	solubility profile compared with Form A [3]
CC(C)Oc1cc(Oc2cnc(C(=O)N3CCC3)cn2)cc(C(=O)Nc2cc[nH]n2)c1 [Form B, 3-{[5-(azetidin-1-ylcarbonyl)pyrazin-2-yl]oxy}-5-[(1-methylethyl)oxy]-N-1H-pyrazol-3-ylbenzamide]	does not significantly convert to other forms	most stable form	

Reference: patent US20100094009A1, “NOVEL CRYSTALLINE COMPOUND USEFUL AS GLK ACTIVATOR” (priority 2006, published 2010)
